In patent US6506880B2, “Synthetic peptides that enhance atherogenic lipoprotein uptake and lower plasma cholesterol” (The UAB Research Foundation, priority 1998, dated 2003):

Legend:
[1] = Circular dichroic spectrometry, percent helicity of peptides; format: physicochemical; details: for Percent Helicity, Peptide: peptide alone, 100 μM in PBS, pH 7.4, 25° C.; for Percent Helicity, Peptide/DMPC (1:20): peptide-DMPC complex 1:20 m/m
Method: Circular dichroic spectra were recorded on a signal averaging AVIV 62DS spectropolarimeter as described earlier (18). Briefly, circular dichroic spectra were obtained at 25° C. by signal averaging of four scans recorded every nm from 260 nm to 190 nm using a cell with a 0.01 cm path length Peptide concentrations in PBS, pH 7.4, used were 100 μM. Peptide-DMPC complexes (1:20 m/m) were prepared as described (18) and the change in peptide helicity upon lipid association measured. The helical content of the peptides was estimated from the mean residue ellipticity, [θ]MRE (deg.cm^2.dmol^−1) at 222 nm using the equations as detailed by Morrisett et al.(23).

MEF1 cells [2] = test: Internalization (uptake) and binding of 125I-LDL by mouse embryonic fibroblasts; format: cell-based; details: for Enhancement of LDL uptake (in words): mouse fibroblasts, results not shown
Method: The binding, internalization and degradation of LDL/VLDL in fibroblasts were measured using the method of Goldstein et. al. (20). All cells were grown in DMEM medium in 6-well plates and used at 75-90% confluence was reached. The seeding density of cells used was between 1.5×10^5 and 3.0×10^5 cells/ml medium. Cells were incubated with DMEM medium containing LPDS 24 hours prior to use to upregulate LDL receptors. […] Non-specific binding was determined in the presence of 50 fold excess unlabelled LDL/VLDL with or without peptides. After washing with ice cold PBS (containing BSA 2 mg/ml), to remove excess free labeled lipoprotein, the cells were incubated with dextran sulfate (4 mg/ml, Pharmacia, Mr 500,000) or heparin (Sigma Chemical Co., 10 mg/ml) for 1 h to release spcifically bound ^125I-LDL/^125I-VLDL, and washed with cold PBS. The counts in the dextran sulfate wash reflect the amount of LDL/VLDL bound to cells.
The cells were dissolved in 0.1 N NaOH and a 0.5 ml aliquot of cell suspension was counted. These counts reflect the amount of LDL/VLDL internalized. Protein was estimated by the method of Lowry. Degradation of LDL/VLDL were studied using the protocol described above for 4° C., except that the cells were incubated at 37° C. for 5 hours. Degradation was determined by precipitating the unbound ^125I-LDL/^125I-VLDL from the medium with 50% TCA (0.5 ml of 50% TCA was added to 1 ml of medium) and incubating at 4° C. for 30 minutes (20). The precipitate was removed by centrifugation. The supernatant was treated with 10 μl of 40% potassium iodide and 40 μl of 30% hydrogen peroxide. The free ^125I liberated was extracted with 2 ml of chloroform. The upper aqueous layer (0.5 ml) was then counted. This represented the amount of ^125I-monoiodotyrosine produced by the degradation of apoB in LDL/VLDL.
(§1) Heparinase and heparitinase treatment of cells was carried out as follows. The cells were treated with heparinase and heparitinase (Sigma Chemical Co.) at a concentration of 3 U/ml of media for 2 hours at 37° C. These experiments were carried out using human and mouse fibroblasts as well as HepG2 cells. Mouse embryonic fibroblasts (MEF1), the LRP deficient mutant (PEA13) and the LRP/LDL double mutant (MEF4) were (obtained from ATCC ) used to identify the possible mechanism involved. In all the cell experiments, the average value of triplicates was used.
The effect of the peptide was studied in two ways: (a) the peptide was added to the cell media directly after adding LDL and (b) it was first incubated with LDL for 1 h at room temperature and the coincubated mixture was added to the cells after filtering through a 0.221μ filter. The peptide-LDL “complex” or modified LDL appears to enhance the uptake of ^125I-LDL much more than the peptide by itself (results not shown). […]

HepG2 cells [3] = test: Uptake of 125I-VLDL-peptide complex by HepG2 cells; format: cell-based
[4] = test system: apo E-gene knock out mice; test: Intravenous administration of peptide, plasma cholesterol (CLiP); format: in vivo, mouse
Method: Female apo E knockout mice were injected through the tail vein with ^125I-Ac-hE18A-NH2 (50 μg in 100 μl PBS). Blood samples were taken by retro-orbital bleeding at baseline (0 h) and at 2 minutes and 6 hours following injection. Success of injection was determined by measuring radioactivity in the 2 minutes sample and calculating total plasma peptide by specific radioactivity of the peptide, assuming total plasma volume=4.2% of body weight.
50 μg of the ^125I-labeled peptide was injected into the tail vein into female apo E-gene knock out mice. Blood was drawn by retro-orbital bleeding immediately before injection (time 0), and at two minutes and 6 hours following the injection. Success of injections was determined by measuring the plasma radioactivity in the two minute sample; the total plasma peptide at two minutes was determined from the specific activity of the injected peptide and the radioactivity present in the plasma. Total plasma volume was assumed to be 4.2% of body weight. Plasma cholesterol profiles were determined on 5 μl of 0 h and 6 h samples by the CLiP method.
CLiP were determined using a modification of a previously described method for the semi-automated cholesterol profiling of lipoproteins by column chromatography (31). The apparatus consisted of two biocompatible HPLC pumps, an injector Pharmacia), a post-column reactor, a 30×1 cm Superose 6 column, and a spectrophotometric detector reading at 500 nm. Plasma samples were injected onto the Superose 6 column. Immediately after the column, cholesterol reagent (Cholesterol 1000, Pharmacia) was mixed with the column eluent through a low-dead-volume mixing tee, and the mixture entered a heating block (set at […]). Outflow from the heating block entered the spectrophotometric detector, and the cholesterol profile was collected through an A/D board and the digitized profile stored in a computer.
To determine the effect of peptide Ac-hE18A-NH2 in clearing the plasma cholesterol, 14 μg to 33 μg of the peptide were administered into six apo E(-/-) animals. In every case, the plasma cholesterol levels decreased. […]

MEF1 cells [5] = test: Effect of heparinase/heparitinase treatment of cells on peptide-mediated LDL internalization; format: cell-based, mouse; details: heparinase and heparitinase 0.5 units each/ml
Method: MEF1 cells were pretreated with heparinase/heparitinase(3U/ml) for 2 hours at 37° C. and then incubated with ^1251I-LDL-peptide for 2 hours at 37° C. The black bars represent internalization without heparinase/heparitinase treatment while the speckled bars represent internalization after pretreatment with heparinase/heparitinase.
as §1
A possible high capacity, low affinity pathway has been previously identified for lipoprotein binding and uptake. Heparan sulfate proteoglycans (HSPG) bind and take up apo E-enriched lipoproteins (27). […] These apo E mimicking peptides could modify LDL and be taken up through heparan sulfate proteoglycans. Therefore, the cells were treated with heparinase and heparitinase (0.5 units each/ml).

HepG2 cells [6] = test: Degradation of 125I-VLDL-peptide complex by HepG2 cells; format: cell-based
Method: […] was used as a control. ^125I-VLDL was incubated with Ac-hE18A-NH2 (1:1 w/w) and reisolated by density centrifugation. The peptide bound to ^125I-VLDL floated to the top while the unbound peptide was at the bottom. The ^125I-VLDL-peptide complex was used to determine the effect of the peptide on the uptake and degradation of ^125I-VLDL. The first bar: ^125I-VLDL alone; the second bar: ^125VLDL-Ac-18A-NH2 (1:1 w/w); the third bar: VLDL-Ac-hE18A-NH2 (1:1 w/w). The data represent an average of triplicate values.
The binding, internalization and degradation of LDL/VLDL in fibroblasts were measured using the method of Goldstein et. al. (20). All cells were grown in DMEM medium in 6-well plates and used at 75-90% confluence was reached. The seeding density of cells used was between 1.5×10^5 and 3.0×10^5 cells/ml medium. Cells were incubated with DMEM medium containing LPDS 24 hours prior to use to upregulate LDL receptors. […] Non-specific binding was determined in the presence of 50 fold excess unlabelled LDL/VLDL with or without peptides. […]
The cells were dissolved in 0.1 N NaOH and a 0.5 ml aliquot of cell suspension was counted. […] Degradation was determined by precipitating the unbound ^125I-LDL/^125I-VLDL from the medium with 50% TCA (0.5 ml of 50% TCA was added to 1 ml of medium) and incubating at 4° C. for 30 minutes (20). […] The upper aqueous layer (0.5 ml) was then counted. […]

[7] = apo E(-/-) mice, intravenous, 6 hours

LRRLRRRLLR-18A (an analog of human apolipoprotein E receptor binding domain) [hE-(R)18A, analog of hE-18A with Lys replaced by Arg]
Percent Helicity, Peptide [1]: 51.2%
Percent Helicity, Peptide ([1]; listed as hE(R)18A): ~50%
Percent Helicity, Peptide/DMPC (1:20) [1]: 70.8%

LRKLRKRLLR-18A (LRKLRKRLLRDWLKAFYDKVAEKLKEAF) [hE-18A, 141-150 region of human apo E linked to class A amphipathic helical peptide 18A]
Percent Helicity, Peptide [1]: 36.0%
Percent Helicity, Peptide ([1]; listed as hE18A): 36%
Percent Helicity, Peptide/DMPC (1:20) [1]: 46.0%

Ac-18A-NH2: control peptide, end protected class A amphipathic helical peptide 18A [reference compound]
Enhancement of LDL uptake (in words) (MEF1 cells [2]): did not enhance LDL uptake
Uptake of VLDL by HepG2 cells (in words) (HepG2 cells [3]; VLDL-peptide 1:1 w/w): does not increase uptake of VLDL

Ac-hE18A-NH2: end protected analog of hE18A (acetyl and amino groups) (Ac-LRKLRKRLLRDWLKAFYDKVAEKLKEAF-NH2)
Percent Helicity, Peptide [1]: 69.3%
Percent Helicity, Peptide/DMPC (1:20) [1]: 74.3%
Reduction of total cholesterol ([4]; FIG. 10B, plasma cholesterol profile at 6 hours vs baseline, single animal): > 50%
HDL cholesterol [4, 7]: unchanged
VLDL and LDL cholesterol levels [4, 7]: lowered
Reduction of uptake of peptide treated LDL by heparinase/heparitinase (MEF1 cells [5]): ~50%
Enhancement of degradation of VLDL by HepG2 cells (HepG2 cells [6]; VLDL-peptide 1:1 w/w, versus control): three
Enhancement of degradation of VLDL compared to VLDL alone (HepG2 cells [6]; peptide-associated VLDL): three
Effectiveness in LDL internalization of protected peptide relative to free peptide (MEF1 cells [2]; 10 μg peptide, LDL 10 μg, versus corresponding unprotected peptide): 5 times
Enhancement of LDL internalization (MEF1 cells [2]; MEF1 cells with induced LDL receptors, 125I-LDL 10 μg + peptide 10 μg, 2 hours at 37° C.): five
Enhancement of uptake of VLDL compared to VLDL alone (HepG2 cells [3]; peptide-associated VLDL): six

LRKLRKRLLR [reference compound]
Enhancement of LDL uptake (in words) (MEF1 cells [2]): did not enhance LDL uptake

LRKMRKRLMR-18A (DOMAIN 133..142 mouse apolipoprotein E receptor binding domain; listed as Mus sp.) [mE-18A]
Percent Helicity, Peptide [1]: 36.3%
Percent Helicity, Peptide ([1]; listed as mE18A): 36%
Percent Helicity, Peptide/DMPC (1:20) [1]: 44.0%
